In brackets after ≈: the same amount, converted by molar mass.
How the values were obtained:
COX-1 = biological target: T1, COX-1 (Mus musculus, UniProt P22437); assay: Evaluation of COX-1 activity: PGE2 formation in mouse peritoneal macrophages without aspirin and LPS treatment; type: cell-based; details: for IC50: read-out: IC50, μg/ml COX-1 (converted)
T1 sequence (P22437 27-602): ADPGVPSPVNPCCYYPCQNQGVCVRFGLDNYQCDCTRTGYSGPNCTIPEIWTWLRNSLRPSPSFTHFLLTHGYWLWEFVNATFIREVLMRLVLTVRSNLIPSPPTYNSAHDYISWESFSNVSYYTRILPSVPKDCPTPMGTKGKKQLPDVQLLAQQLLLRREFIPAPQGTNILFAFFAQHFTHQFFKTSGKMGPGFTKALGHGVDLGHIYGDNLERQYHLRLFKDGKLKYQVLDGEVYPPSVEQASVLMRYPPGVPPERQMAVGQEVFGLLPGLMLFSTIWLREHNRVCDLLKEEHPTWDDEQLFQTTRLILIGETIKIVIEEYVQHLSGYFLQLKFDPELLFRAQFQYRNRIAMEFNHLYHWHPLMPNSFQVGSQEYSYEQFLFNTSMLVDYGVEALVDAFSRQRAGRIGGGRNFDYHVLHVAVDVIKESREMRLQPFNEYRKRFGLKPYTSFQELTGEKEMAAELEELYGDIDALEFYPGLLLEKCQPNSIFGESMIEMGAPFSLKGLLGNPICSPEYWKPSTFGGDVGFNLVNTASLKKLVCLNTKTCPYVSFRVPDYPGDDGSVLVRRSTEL
Protocol: (§1) Evaluation of in vitro COX-2 and COX-1 Activity [J. Pharmacol. Exp. Ther. 166, 96 (1969)]
(§2) The abdominal skin of a C57BL/6 mouse was sanitized with 70% aqueous ethanol, and was removed without damaging the peritoneum. 5 ml of cold phosphate buffer solution (PBS) was then injected into the abdominal cavity. After a minute, the peritoneal fluid containing the macrophages was collected using a syringe and a needle. The collected fluid was centrifuged for 5 min at 1500 rpm to afford pellets of cells. The pellets were then dispersed in the RPMI-1640 culture medium containing 100 units/ml penicillin and 100 μg/ml streptomycin.
(§3) The pellets dispersed as above were treated with 500 μM aspirin in order to knock out the activity of the COX-1 enzymes in the cells. The suspension was then diluted with the RPMI-1640 medium to contain 1×10^6 cells/ml. 100 μl of the suspension was added to each well of a 96-well ELISA plate. Then the plate was incubated for 2 hrs at 37° C. under 5% CO2 in order to fix the macrophages onto the plate. The cells, which were not fixed onto the plate were removed by washing with PBS two times. The purity of macrophages obtained thereby was confirmed by differential counting. The RPMI-1640 medium containing 3% fetal bovine serum albumin was added to each well of the plate, which was followed by stimulation with 10 μg/ml lipopolysaccharide (LPS). Usually 5×10^5 cells/ml were present by this preparation. The LPS-treated suspensions were incubated for 16 hours at 37° C. under 5% CO2 to induce COX-2. Then the culture medium was removed and the macrophages were washed two times with PBS. Then 130 μl RPMI-1640 culture medium was added to each well and the macrophage solutions were incubated at 37° C. for 10 minutes, which was followed by the treatment with 10 μM arachidonic acid and an appropriate amount of compounds of this invention. The plate was incubated for another 10 minutes. The upper solution was collected using a micropipette and was subjected to determination of PGE2 amount in the solution. The amount of PGE2 present in the collected solution was determined either by a known radio-immuno assay or by a known enzyme-immunoassay [Methods in Enzymol. 86, 258 (1982); Methods in Enzymol. 187, 24 (1990)]. The extent of COX-2 inhibition by a compound of the present invention was calculated by assuming, that the amount of PGE2 formed with the treatment of 10 μg/ml arachidonic acid was used is the maximum possible amount of PGE2, and that the amount of PGE2 formed without the treatment of arachidonic acid is the minimum possible amount of PGE2.
In the evaluation of COX-1 inhibitory activity by a compound of the present invention, the same procedures employed for evaluation of COX-2 activity were employed, except omitting the following two steps: 1) the treatment with aspirin for knockout of COX-1 activity and 2) treatment with LPS for induction of COX-2.
(§4) In order to determine IC50 for a compound of this invention, enzymatic activities were measured at multiple concentrations of compounds of this invention around IC50 of the compound. Usually enzymatic activities at 4˜5 concentrations were measured to calculate out IC50 for a compound of this invention.

COX-2 = biological target: T2, COX-2 (Mus musculus, UniProt Q05769); assay: Evaluation of COX-2 activity: PGE2 formation in aspirin-treated, LPS-stimulated mouse peritoneal macrophages; type: cell-based; details: for IC50: read-out: IC50, μg/ml COX-2 (converted)
T2 sequence (Q05769 18-604): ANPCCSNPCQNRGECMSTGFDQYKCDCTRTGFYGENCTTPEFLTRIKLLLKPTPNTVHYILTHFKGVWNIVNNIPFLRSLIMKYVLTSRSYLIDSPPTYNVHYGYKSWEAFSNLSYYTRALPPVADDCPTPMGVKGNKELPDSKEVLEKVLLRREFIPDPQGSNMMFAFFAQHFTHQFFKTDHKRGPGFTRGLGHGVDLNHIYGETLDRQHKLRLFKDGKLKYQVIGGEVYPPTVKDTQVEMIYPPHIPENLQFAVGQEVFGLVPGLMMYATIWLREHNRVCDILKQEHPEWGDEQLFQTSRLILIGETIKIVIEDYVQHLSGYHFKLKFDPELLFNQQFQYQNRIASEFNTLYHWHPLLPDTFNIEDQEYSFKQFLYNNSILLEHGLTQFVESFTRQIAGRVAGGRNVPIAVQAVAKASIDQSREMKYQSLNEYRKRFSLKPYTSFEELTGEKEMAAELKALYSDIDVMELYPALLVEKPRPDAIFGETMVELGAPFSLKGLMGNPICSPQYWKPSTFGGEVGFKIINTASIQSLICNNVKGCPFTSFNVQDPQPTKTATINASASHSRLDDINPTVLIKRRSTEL
Protocol: as §1, §2
as §3, with “The purity of macrophages obtained thereby was confirmed by differential counting.” left out, “Usually 5×10^5 cells/ml were present by this preparation.” left out
as §4

SMILES | IC50, μg/ml COX-1 (COX-1) | IC50, μg/ml COX-2 (COX-2) | melting point | IC50 (COX-1) | IC50 (COX-2)
CC1(C)OC(c2ccc(S(C)(=O)=O)cc2)=C(c2ccco2)C1=O [Example 18, 2,2-Dimethyl-4-(2-furanyl)-5-{4-(methylsulfonyl)phenyl}-3(2H)-furanone] | 30 µg/mL (≈ 90.3 µM) | 0.2 µg/mL (≈ 0.602 µM) | – | – | –
COc1ccc(C2=C(c3ccc(S(N)(=O)=O)cc3)OC(C)(C)C2=O)cc1OC [Example 24, 5-{4-(Aminosulfonyl)phenyl}-4-{3,4-(dimethoxy)phenyl}-2,2-dimethyl 3(2H)-furanone] | 6.97 µg/mL (≈ 17.3 µM) | 0.034 µg/mL (≈ 0.0843 µM) | – | – | –
CCC1(CC)OC(c2ccc(S(C)(=O)=O)cc2)=C(c2ccc(C(C)=O)cc2)C1=O [Example 49, 4-(4-Acetylphenyl)-2,2-diethyl-5-{4-(methylsulfonyl)phenyl}-3(2H)-furanone] | 30 µg/mL (≈ 72.7 µM) | 0.3 µg/mL (≈ 0.727 µM) | – | – | –
CCC1(CC)OC(c2ccc(S(C)(=O)=O)cc2)=C(c2ccc(OC)c(F)c2)C1=O [Example 50, 2,2-Diethyl-4-(3-fluoro-4-methoxyphenyl)-5-{4-(methylsulfonyl)phenyl}-3(2H)-furanone] | 20 µg/mL (≈ 47.8 µM) | 0.03 µg/mL (≈ 0.0717 µM) | – | – | –
CC1(C)OC(c2ccc(S(C)(=O)=O)cc2)=C(c2ccc(F)c(F)c2)C1=O [Example 80] | 5 µg/mL (≈ 13.2 µM) | – | 162 °C | – | –
CC(O)c1ccc(C2=C(c3ccc(S(C)(=O)=O)cc3)OC(C)(C)C2=O)cc1 (centres unmarked) [Example 111, 2,2-Dimethyl-4-{4-(1-hydroxyethyl)phenyl}-5-{4-(methylsulfonyl)phenyl}-3(2H)-furanone] | 50 µg/mL (≈ 129 µM) | 0.3 µg/mL (≈ 0.776 µM) | – | – | –
CC1(C)OC(c2ccc(S(C)(=O)=O)cc2)=C(c2cccs2)C1=O [Example 113] | 3 µg/mL (≈ 8.61 µM) | 0.03 µg/mL (≈ 0.0861 µM) | – | – | –
CSc1ccc(C2=C(c3cccc(Cl)c3)C(=O)C(C)(C)O2)cc1 [Example 168, 4-(3-chlorophenyl)-2,2-dimethyl-5-{4-(methylthio)phenyl}-3(2H)-furanone] | 3 µg/mL (≈ 8.7 µM) | 0.5 µg/mL (≈ 1.45 µM) | – | – | –
CCC1(C)OC(c2ccc(S(C)(=O)=O)cc2)=C(c2cccc(C(C)C)c2)C1=O (centres unmarked) [Example 201] | – | – | – | 50.2 µM | 0.251 µM
CCCc1ccc(C2=C(c3ccc(S(C)(=O)=O)cc3)OC(C)(CC)C2=O)cc1 (centres unmarked) [Example 202] | – | – | – | 7.53 µM | 0.0753 µM
CCC1(C)OC(c2ccc(S(C)(=O)=O)cc2)=C(c2ccc(C)s2)C1=O (centres unmarked) [Example 225] | 3 µg/mL (≈ 7.97 µM) | 0.03 µg/mL (≈ 0.0797 µM) | – | – | –
C[S+]([O-])c1ccc(C2=C(c3cccc(F)c3)C(=O)C(C)(C)O2)cc1F (centres unmarked) [Example 290, 2,2-Dimethyl-5-{3-fluoro-4-(methylsulfinyl)phenyl)-4-(3-fluorophenyl)-3(2H)-furanone] | 20 µg/mL (≈ 55.2 µM) | 0.3 µg/mL (≈ 0.828 µM) | – | – | –
CC1(C)OC(c2ccc(S(N)(=O)=O)c(F)c2)=C(c2ccccc2)C1=O [Example 300, 5-{4(Aminosulfonyl)-3-fluorophenyl}-2,2-dimethyl-4-phenyl-3(2H)-furanone] | 20 µg/mL (≈ 55.3 µM) | 0.03 µg/mL (≈ 0.083 µM) | – | – | –

Next, values leading:

IC50, μg/ml COX-1 (COX-1) | IC50, μg/ml COX-2 (COX-2) | melting point | IC50 (COX-1) | IC50 (COX-2) | SMILES
30 µg/mL (≈ 86.1 µM) | 0.2 µg/mL (≈ 0.574 µM) | – | – | – | CC1(C)OC(c2ccc(S(C)(=O)=O)cc2)=C(c2ccsc2)C1=O [Example 17, 2,2-Dimethyl-5-{4-(methylsulfonyl)phenyl}4-(3-thienyl)-3(2H)-furanone]
50 µg/mL (≈ 140 µM) | 0.2 µg/mL (≈ 0.56 µM) | – | – | – | CCC1(C)OC(c2ccc(S(C)(=O)=O)cc2)=C(c2cccnc2)C1=O (centres unmarked) [Example 36, 2-Ethyl-2-methyl-5-{4-(methylsulfonyl)phenyl}-4-(3-pyridyl)-3(2H)-furanone]
5 µg/mL (≈ 13.6 µM) | 0.03 µg/mL (≈ 0.0814 µM) | – | – | – | CS(=O)(=O)c1ccc(C2=C(c3ccccc3)C(=O)C3(CCCC3)O2)cc1 [Example 53, 2-{(4-Methylsulfonyl)phenyl}-3phenyl-1-oxa-spiro[4,4]non-2-en-4-one]
– | 0.05 µg/mL (≈ 0.122 µM) | – | – | – | CC(C)c1ccc(C2=C(c3ccc(S(C)(=O)=O)cc3)OC3(CCCC3)C2=O)cc1 [Example 54, 3-(4-Isopropylphenyl)-2-{4-(methylsulfonyl)phenyl}-1-oxa-spiro[4,4]non-2-en-4-one]
50 µg/mL (≈ 133 µM) | – | 100 to 103 °C | – | – | CC1(C)OC(c2ccc(S(C)(=O)=O)cc2)=C(c2ccccc2Cl)C1=O [Example 69]
30 µg/mL (≈ 80.5 µM) | 0.1 µg/mL (≈ 0.268 µM) | – | – | – | COc1cccc(C2=C(c3ccc(S(C)(=O)=O)cc3)OC(C)(C)C2=O)c1 [Example 95]
– | – | – | 77.6 µM | 0.776 µM | CCC1(C)OC(c2ccc(S(C)(=O)=O)cc2)=C(c2cccc(OC)c2)C1=O (centres unmarked) [Example 200]
300 µg/mL (≈ 745 µM) | 1 µg/mL (≈ 2.48 µM) | – | – | – | CS(=O)(=O)c1ccc(C2=C(c3cccc(F)c3)C(=O)C3(CCOCC3)O2)cc1 [Example 261, 3-(3-Fluorophenyl)-2-{4-(methylsulfonyl)phenyl}-1,8-dioxa-spiro[4,5]dec-2-en-4-one]

Source: patent US6492416B1, “4,5-diaryl-3(2H)-furanone derivatives as cyclooxygenase-2 inhibitors” (Pacific Corporation, priority 1999, dated 2002)
